{"source": "patent US20060193881A1", "about": "“Method and compositions for attracting mosquitoes employing (R)-(-) isomers of 1-alken-3-ols” (Bedoukian Research, Inc., priority 2005, published 2006)", "format_in_all_cases": "in vivo", "key": {"mosquitoes [1]": {"system": "mosquitoes", "experiment": "John W. Hock fan-driven CO2 trap field test, small amount (R) vs large amount racemic, Danbury Conn.", "conditions": "14 days; for average mosquitoes caught: CO2 150 ml/min", "experimental": "A test similar to example 5 was conducted in Danbury Conn. using fan driven-traps manufactured by John W. Hock Company in Gainesville Fla. using 150 ml/min CO2. To compare the attractiveness of a large amount of racemic 1-octen-3-ol to a small amount of (R)-(-)-1-octen-3-ol, one lure contained 50 mg of (R)-(-)-1-octen-3-ol diluted in 1.5 ml diethyl phthalate, releasing 1.5 mg/day or less was evaluated against a lure containing 1660 mg of racemic 1-octen-3-ol (830 mg of each enantiomer) diluted in 1.5 ml of diethyl phthalate, and releasing approximately 40 mg of 1-octen-3-ol/day. After rotation between the two traps over 14 days, the lure with the 1660 mg of racemic octenol caught an average of 9.4 mosquitoes, while the lure containing 50 mg of (R)-(-)-1-octen-3-ol caught an average of 11.8 mosquitoes, representing an increase of 26%."}, "mosquitoes [2]": {"system": "mosquitoes", "experiment": "Mosquito Magnet Pro trap field test of 1-decen-3-ol enantiomers, Florida", "conditions": "1 gram in fibrous lure; for total mosquitoes caught: lures rotated between traps over nine days", "experimental": "The tests were conducted in Florida using Mosquito Magnet Pro mosquito traps manufactured by American Biophysics, rotating the lures between traps over a period of nine days, using 1 gram of each test material in a fibrous lure of the type normally used in the traps."}, "mosquitoes [3]": {"system": "mosquitoes", "experiment": "Mosquito Magnet Liberty trap field test with porous frit, Danbury, Conn.", "conditions": "1 gram on porous frit, 20-30 mg/day release", "experimental": "Tests were conducted with the Mosquito Magnet Liberty model traps manufactured by American Biophysics Corp. Traps were spaced 65-70 feet apart at the edge of a wetland in Danbury, Conn., at least 25 feet from any buildings. 1 gram of test chemical was added to a clean porous frit of the type normally used in the trap, releasing approximately 20-30 mg/day. In the first test, racemic 1-octen-3-ol and (R)-(-)-1-octen-3-ol were rotated among four traps over 8 days. In the second test, (S)-(+)-1-octen-3-ol and no treatment were rotated between three traps over nine days."}, "mosquitoes [4]": {"system": "mosquitoes", "experiment": "CO2 fan trap (John W. Hock model 1012) field test with wax lures, Danbury, Conn.", "conditions": "wax lure, approx. 0.17 mg/hour release, CO2 approx. 140 ml/minute, average of four three-day cycles", "experimental": "The following tests were conducted in Connecticut in September 2004. Mosquito traps model 1012 manufactured by John W. Hock Company in Gainesville, Fla. were used in these experiments. The traps use a stream of CO2 directed in the vicinity of a collection bag, with a fan used to blow mosquitoes into the bag. The light supplied with the trap was turned off. The traps were spaced 65-70 feet apart at the edge of a wetland in Danbury, Conn., at least 25 feet from any buildings. The (R) and (S)-1-octen-3-ol was incorporated into a wax lure of the type manufactured by BioSensory, Inc. and placed near a stream of CO2 which was being released at a rate of approximately 140 ml/minute. The traps were operated from approximately 4:00PM until 9:00AM the next day. Daytime temperatures were 70-75° F. during the trials. Average weight loss from the wax lures during the test was approximately 4 mg/day, or 0.17 mg/hour. Three traps were used, with either (R)-1-Octen-3-ol, (S)-1-Octen-3-ol, or no treatment, rotated among the traps over a three-day cycle. Four complete cycles were performed and the results for each treatment were averaged.\nThe traps with no attractant were considered as the baseline catch of mosquitoes and the results of the catches with the isomers were compared to this baseline value."}, "mosquitoes [5]": {"system": "mosquitoes", "experiment": "Mosquito Magnet Liberty trap field test with or without ammonium bicarbonate lure, Redding, Conn.", "conditions": "lure with 800 mg (R)-(-)-1-octen-3-ol in waxy carrier; rotated daily for 15 days", "experimental": "A test similar to Example 3 was conducted in Redding, Conn., employing Mosquito Magnet Liberty traps rotated daily for 15 days. One trap was provided with a lure containing 470 mg (R)-(-)-1-octen-3-ol isomer in a waxy carrier plus 5 grams of ammonium bicarbonate provided by a lure containing ammonium bicarbonate in a controlled release polymer matrix, provided by […]-BCS Limited ([…]-BCS Limited […] Road, Treforest Industrial Estate, Pontypridd, CF37 5SU UK) and the second trap was provided with a lure containing 800 mg (R)-(-)-1-octen-3-ol isomer in the waxy carrier. The trap with the 800 mg (R)-(-)-1-octen-3-ol isomer attracted an average of 3.8 mosquitoes daily whereas the traps with only 470 mg (R)-(-)-1-octen-3-ol isomer plus the ammonium carbonate attracted average of 6.9 mosquitoes daily, an average increase of about 82%."}, "mosquitoes [6]": {"system": "mosquitoes", "experiment": "Mosquito Magnet Liberty trap field test, effect of (S) isomer on (R) isomer, Danbury Conn.", "conditions": "14 days", "experimental": "A test to compare the effect of the presence of (S)-(+)-1-octen-3-ol on the efficacy of (R)-(-)-1-octen-3-ol was conducted in Danbury Conn. One lure contained 200 mg of (R)-(-)-1-octen-3-ol diluted in diethyl phthalate to slow release to under 1.7 mg/day. The other lure was identical except that it also contained 200 mg of (S)-(+)-1-octen-3-ol (equivalent to 400 mg of racemic 1-octen-3-ol). The lures were rotated over 14 days between two American Biophysics Mosquito Magnet Liberty traps. The lure containing the 200 mg of (R)-(-)-1-octen-3-ol plus 200 mg (S)-(+)-1-octen-3-ol caught an average of 5.6 mosquitoes/day, while the lure containing 200 mg of (R)-(-)-1-octen-3-ol caught an average of 8.1 mosquitoes daily, representing an increase in efficacy of 45%."}, "mosquitoes [7]": {"system": "mosquitoes", "experiment": "Mosquito Magnet Pro trap field test with or without ammonia source, Gainesville, Fla.", "conditions": "lure with 230 mg (R)-(-)-1-octen-3-ol; traps producing carbon dioxide and heat; twenty-day cycle", "method": "The test was conducted in Gainesville, Fla. using Mosquito Magnet Pro model mosquito traps manufactured by American Biophysics Corp. that produced carbon dioxide and heat. The traps were provided with either lures having 230 mg (R)-(-)-1-octen-3-ol isomer or lures with 230 mg (R)-(-)-1-octen-3-ol isomer in combination with a source of ammonia provided by a lure containing ammonium bicarbonate in a controlled release polymer matrix, Bactrocera (Dacus) olae, Product code BF L080, provided by AgriSense-BCS Limited, Taffs Mead Road, Treforest Industrial Estate, Pontypridd, CF37 5SU, UK. The traps were rotated between the locations for a twenty-day cycle."}}, "data": [{"compound": "C=CC(O)CCCCC", "note": "(racemic) [racemic octenol, 1-octen-3-ol, reference compound]", "values": [{"measurement": "average mosquitoes caught", "setting": "mosquitoes [1]; lure with 1660 mg racemic in 1.5 ml diethyl phthalate, approx. 40 mg/day release", "value": 9.4, "unit": "mosquitoes"}]}, {"compound": "C=C[C@@H](O)CCCCCCC", "note": "[(S)-(+)-1-decen-3-ol, reference compound]", "values": [{"measurement": "total mosquitoes caught", "setting": "mosquitoes [2]", "value": 47, "unit": "mosquitoes"}]}, {"compound": "C=C[C@@H](O)CCCCC", "note": "[(S)-(+)-1-octen-3-ol, reference compound]", "values": [{"measurement": "fewer mosquitoes caught than the trap with no attractant", "setting": "mosquitoes [3]; second test, three traps over nine days", "value": 37, "unit": "%"}, {"measurement": "more mosquitoes captured than the baseline (traps with no attractant)", "setting": "mosquitoes [4]", "value": 35, "unit": "%"}]}, {"compound": "C=C[C@H](O)CCCCCCC", "note": "[(R)-(-)-1-decen-3-ol]", "values": [{"measurement": "total mosquitoes caught", "setting": "mosquitoes [2]", "value": 89, "unit": "mosquitoes"}, {"measurement": "improvement in catch vs (S)-(+)-1-decen-3-ol", "setting": "mosquitoes [2]; nine days", "value": 89, "unit": "%"}]}, {"compound": "C=C[C@H](O)CCCCC", "note": "[(R)-(-)-1-octen-3-ol]", "values": [{"measurement": "increase in catch vs lure with 1660 mg racemic octenol", "setting": "mosquitoes [1]; 50 mg (R) isomer", "value": 26, "unit": "%"}, {"measurement": "average mosquitoes caught", "setting": "mosquitoes [1]; lure with 50 mg (R) in 1.5 ml diethyl phthalate, 1.5 mg/day or less release", "value": 11.8, "unit": "mosquitoes"}, {"measurement": "more mosquitoes caught than trap with 50:50 racemic mixture of 1-octen-3-ol", "setting": "mosquitoes [3]; first test, four traps over 8 days", "value": 18, "unit": "%"}, {"measurement": "more mosquitoes captured than the baseline (traps with no attractant)", "setting": "mosquitoes [4]", "value": 88, "unit": "%"}, {"measurement": "average mosquitoes attracted daily", "setting": "mosquitoes [5]", "value": 3.8, "unit": "mosquitoes daily"}, {"measurement": "increase in efficacy vs lure also containing 200 mg (S)-(+)-1-octen-3-ol", "setting": "mosquitoes [6]; 200 mg (R) isomer", "value": 45, "unit": "%"}, {"measurement": "average mosquitoes caught", "setting": "mosquitoes [6]; lure with 200 mg (R)-(-)-1-octen-3-ol in diethyl phthalate, release under 1.7 mg/day", "value": 8.1, "unit": "mosquitoes daily"}, {"measurement": "average number of mosquitoes attracted daily", "setting": "mosquitoes [7]", "value": 14, "unit": "mosquitoes"}]}]}
